The source made the active and inactive calls.
How the values were obtained:
Assay type in all cases: cell-based
Conditions in all cases: HEK-293T
[1] = target: T1, Gamma-aminobutyric acid receptor subunit alpha-1 (Homo sapiens) (UniProt P14867); assay: Neurotransmitter activity at GABAA alpha1 receptor expressed in HEK293T cells assessed as release of GABA-induced permeability to chloride ions by photolysis technique
T1 sequence (whole entry): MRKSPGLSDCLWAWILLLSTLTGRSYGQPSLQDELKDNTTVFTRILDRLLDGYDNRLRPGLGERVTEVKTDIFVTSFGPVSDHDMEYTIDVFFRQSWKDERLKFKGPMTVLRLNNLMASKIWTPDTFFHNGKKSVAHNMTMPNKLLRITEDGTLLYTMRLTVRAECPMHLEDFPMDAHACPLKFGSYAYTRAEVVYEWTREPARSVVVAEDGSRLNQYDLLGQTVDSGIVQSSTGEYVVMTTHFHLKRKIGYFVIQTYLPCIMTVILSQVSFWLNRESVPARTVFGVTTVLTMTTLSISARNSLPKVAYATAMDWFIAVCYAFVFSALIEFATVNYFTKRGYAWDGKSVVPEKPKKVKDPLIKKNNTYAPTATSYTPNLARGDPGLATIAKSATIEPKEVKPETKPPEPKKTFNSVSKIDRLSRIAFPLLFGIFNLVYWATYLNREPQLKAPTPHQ

[2] = target: T2, Gamma-aminobutyric acid receptor subunit delta (Homo sapiens) (UniProt O14764); assay: Neurotransmitter activity at GABAA delta receptor expressed in HEK293T cells assessed as release of GABA-induced membrane permeability to chloride ions by photolysis technique
T2 sequence (whole entry): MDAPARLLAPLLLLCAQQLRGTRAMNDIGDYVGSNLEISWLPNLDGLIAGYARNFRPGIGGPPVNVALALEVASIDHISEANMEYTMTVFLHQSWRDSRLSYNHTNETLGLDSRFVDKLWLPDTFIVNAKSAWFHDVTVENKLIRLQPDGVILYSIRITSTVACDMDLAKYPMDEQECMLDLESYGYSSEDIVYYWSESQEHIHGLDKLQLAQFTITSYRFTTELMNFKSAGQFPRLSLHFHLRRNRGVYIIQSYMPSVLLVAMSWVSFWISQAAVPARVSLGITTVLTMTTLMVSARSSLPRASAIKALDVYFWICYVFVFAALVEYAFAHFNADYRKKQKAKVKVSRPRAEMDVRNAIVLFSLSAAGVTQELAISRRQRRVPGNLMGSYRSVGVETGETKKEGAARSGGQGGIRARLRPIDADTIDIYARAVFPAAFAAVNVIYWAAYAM

[3] = target: T3, Gamma-aminobutyric acid receptor subunit beta-2 (Homo sapiens) (UniProt P47870); assay: Neurotransmitter activity at GABAA beta2 receptor expressed in HEK293T cells assessed as release of GABA-induced permeability to chloride ions by photolysis technique
T3 sequence (whole entry): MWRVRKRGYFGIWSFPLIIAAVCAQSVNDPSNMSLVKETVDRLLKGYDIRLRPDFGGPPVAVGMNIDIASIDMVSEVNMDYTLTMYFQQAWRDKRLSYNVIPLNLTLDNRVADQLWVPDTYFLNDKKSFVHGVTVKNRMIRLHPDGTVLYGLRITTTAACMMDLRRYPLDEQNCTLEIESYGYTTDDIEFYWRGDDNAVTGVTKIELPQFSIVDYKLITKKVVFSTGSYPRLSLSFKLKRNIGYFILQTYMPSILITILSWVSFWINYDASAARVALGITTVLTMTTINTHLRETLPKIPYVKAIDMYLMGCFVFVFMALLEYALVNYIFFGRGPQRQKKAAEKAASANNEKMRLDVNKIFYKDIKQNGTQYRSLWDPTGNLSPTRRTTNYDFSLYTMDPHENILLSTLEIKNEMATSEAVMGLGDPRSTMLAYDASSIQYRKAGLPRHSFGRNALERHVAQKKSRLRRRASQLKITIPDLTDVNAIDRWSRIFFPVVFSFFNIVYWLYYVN

Measured: Activity

CCOC(=O)CNC(=O)C(OC(=O)CCCN)c1cc(=O)oc2cc(N(CC)CC)ccc12 (stereo not drawn)
active: all assays above

From ChEMBL document CHEMBL1153597, “A new synthesis of caged GABA compounds for studying GABAA receptors” (Bioorg Med Chem Lett, 2009)
